Entries after “also recorded” stand apart in the source; their conditions may differ.
Experiments:
microorganisms = test: Peptides having multiple activities (targeting/binding, antimicrobial, growth or phenotype altering)
Source text: In certain embodiments, peptides described herein can have multiple activities. Thus for example, a peptide can have both binding/targeting activity and antimicrobial activity. Such peptides can be used, e.g., in a chimeric construct, for any or all of these properties. Thus, for example, a peptide designated “B” in Table 8 can be used as a targeting peptide. If it is also designated G or M it can also be used for antimicrobial activity.

S. epidermidis = test: Kill or inhibit growth/proliferation; morphology, biofilm and growth disruption (Tables 5, 6); type: cell-based, Staphylococcus epidermidis; design: key: A: Peptide aggregates; B: Less hyphal formation; Clumps; Diffuse clumps and small polyps; F: Diffuse growth; H: Thin; I: Growth inhibition; Microcolony formation; Rippled; Small polyps; Thick; W: Halo formation on top, microlonies on bottom; note: test concentration or dose not given here
C. jeikeium = test: as above; type: cell-based, Corynebacterium jeikeium; design: key: A: Peptide aggregates; B: Less hyphal formation; Clumps; Diffuse clumps and small polyps; F: Diffuse growth; H: Thin; I: Growth inhibition; Microcolony formation; Rippled; Small polyps; Thick; W: Halo formation on top, microlonies on bottom
MRSA = test: as above; type: cell-based, Methicillin-resistant Staphylococcus aureus; design: key: A: Peptide aggregates; B: Less hyphal formation; Clumps; Diffuse clumps and small polyps; F: Diffuse growth; H: Thin; I: Growth inhibition; Microcolony formation; Rippled; Small polyps; Thick; W: Halo formation on top, microlonies on bottom
S. pneumoniae = test: as above; type: cell-based, Streptococcus pneumoniae; design: key: A: Peptide aggregates; B: Less hyphal formation; Clumps; Diffuse clumps and small polyps; F: Diffuse growth; H: Thin; I: Growth inhibition; Microcolony formation; Rippled; Small polyps; Thick; W: Halo formation on top, microlonies on bottom
[1] = test system: microorganisms (e.g., bacteria, yeasts, fungi); test: Targeting peptide binding to target microorganisms (Table 3); conditions: preferably 1x PBS; for Target(s) (microorganisms bound by the targeting peptide): peptide binding in aqueous buffers varied by peptide solubility; for Target(s): microorganism(s) the targeting peptide binds
E. faecalis = test: Kill or inhibit growth/proliferation; morphology, biofilm and growth disruption (Tables 5, 6); type: cell-based, Enterococcus faecalis; design: key: A: Peptide aggregates; B: Less hyphal formation; Clumps; Diffuse clumps and small polyps; F: Diffuse growth; H: Thin; I: Growth inhibition; Microcolony formation; Rippled; Small polyps; Thick; W: Halo formation on top, microlonies on bottom; note: test concentration or dose not given here
M. luteus = test: as above; type: cell-based, Micrococcus luteus; design: key: A: Peptide aggregates; B: Less hyphal formation; Clumps; Diffuse clumps and small polyps; F: Diffuse growth; H: Thin; I: Growth inhibition; Microcolony formation; Rippled; Small polyps; Thick; W: Halo formation on top, microlonies on bottom
E. coli = test: as above; type: cell-based, Escherichia coli; design: key: A: Peptide aggregates; B: Less hyphal formation; Clumps; Diffuse clumps and small polyps; F: Diffuse growth; H: Thin; I: Growth inhibition; Microcolony formation; Rippled; Small polyps; Thick; W: Halo formation on top, microlonies on bottom
Throughout, for Organism, effect (morphology, biofilm and growth disruption): test concentration or dose not given here.
Throughout, for Organism, effect: test concentration or dose not given here.

## PF-622: peptide having multiple activities (TREDVFSVRLINNIVNKQA; Peptide with targeting and/or antimicrobial activity)
microorganisms
  Activities: G B
S. epidermidis
  Organism, effect: S. epidermidis (D)
C. jeikeium
  Organism, effect: C. jeikeium (D)
MRSA
  Organism, effect: MRSA (D)
S. pneumoniae
  Organism, effect: S. pneumoniae (M)
[1]
  Target(s) (microorganisms bound by the targeting peptide): S. epidermidis; also recorded: P. aeruginosa; also recorded: C. albicans; also recorded: S. pneumoniae; also recorded: E. faecalis; also recorded: C. jeikeium
E. faecalis
  Organism, effect: E. faecalis (D)

## PF-623: peptide having multiple activities (VLFAVYLGALDWLFSWLTQKM; Peptide with targeting and/or antimicrobial activity)
microorganisms
  Activities: G B
S. epidermidis
  Organism, effect: S. epidermidis (M)
C. jeikeium
  Organism, effect: C. jeikeium (R)
MRSA
  Organism, effect: MRSA (D)
S. pneumoniae
  Organism, effect: S. pneumoniae (D)
[1]
  Target(s) (microorganisms bound by the targeting peptide): S. epidermidis and P. aeruginosa and MRSA and S. pneumoniae and E. faecalis and C. jeikeium
E. faecalis
  Organism, effect: E. faecalis (D)

## PF-030: peptide having multiple activities (chain 1 MTCHQAPTTTHQSNMA; chain 2 MTCHQAPTTTHQSNMA; Peptide with targeting and/or antimicrobial activity)
microorganisms
  Activities: G B
M. luteus
  Organism, effect: M. luteus (C)
S. epidermidis
  Organism, effect: S. epidermidis (D)
C. jeikeium
  Organism, effect: C. jeikeium (C)
MRSA
  Organism, effect: MRSA (R)

## PF-042: peptide having multiple activities (chain 1 LLLSYFRYTGALLQSLF; chain 2 LLLSYFRYTGALLQSLF; Peptide with targeting and/or antimicrobial activity)
microorganisms
  Activities: G B
M. luteus
  Organism, effect: M. luteus (C)
S. epidermidis
  Organism, effect: S. epidermidis (D)
C. jeikeium
  Organism, effect: C. jeikeium (S)
MRSA
  Organism, effect: MRSA (R)

## PF-012: peptide having multiple activities (chain 1 WRGPNTEAGGKSANNIVQVGGAPT; chain 2 WRGPNTEAGGKSANNIVQVGGAPT; Peptide with targeting and/or antimicrobial activity)
microorganisms
  Activities: G B
M. luteus
  Organism, effect: M. luteus (C)
S. epidermidis
  Organism, effect: S. epidermidis (S)
C. jeikeium
  Organism, effect: C. jeikeium (A)
MRSA
  Organism, effect: MRSA (R)

## PF-199 (FPAFSFGAIAGSVSVAR; Peptide with targeting and/or antimicrobial activity)
M. luteus
  Organism, effect: M. luteus (A)
S. epidermidis
  Organism, effect: S. epidermidis (C)
C. jeikeium
  Organism, effect: C. jeikeium (R)

## PF-076: peptide having multiple activities (LYQYELLSKEEYLKCTLIINQRRNEQK; Peptide with targeting and/or antimicrobial activity)
microorganisms
  Activities: G B
M. luteus
  Organism, effect: M. luteus (A)
S. epidermidis
  Organism, effect: S. epidermidis (S)
C. jeikeium
  Organism, effect: C. jeikeium (A)
MRSA
  Organism, effect: MRSA (R)

## PF-139: peptide having multiple activities (ALSKPAIQARTLCRRQDPP; Peptide with targeting and/or antimicrobial activity)
microorganisms
  Activities: G B
M. luteus
  Organism, effect: M. luteus (C)
S. epidermidis
  Organism, effect: S. epidermidis (M)
C. jeikeium
  Organism, effect: C. jeikeium (R)

## PF-637: peptide having multiple activities (chain 1 SRIKQDARSVRKYDRIGIFFYSFKSA; chain 2 SRIKQDARSVRKYDRIGIFFYSFKSA; Peptide with targeting and/or antimicrobial activity)
microorganisms
  Activities: G B
S. epidermidis
  Organism, effect: S. epidermidis (M)
C. jeikeium
  Organism, effect: C. jeikeium (D)
MRSA
  Organism, effect: MRSA (M)
S. pneumoniae
  Organism, effect: S. pneumoniae (M)
[1]
  Target(s) (microorganisms bound by the targeting peptide): S. epidermidis and P. aeruginosa and C. albicans and MRSA and S. pneumoniae and E. faecalis and C. jeikeium
E. faecalis
  Organism, effect: E. faecalis (D)

## PF-022: peptide having multiple activities (chain 1 MINELKNKNSGIMNNYVVTKESKL; chain 2 MINELKNKNSGIMNNYVVTKESKL; Peptide with targeting and/or antimicrobial activity)
microorganisms
  Activities: G B
M. luteus
  Organism, effect: M. luteus (A)
S. epidermidis
  Organism, effect: S. epidermidis (D)
C. jeikeium
  Organism, effect: C. jeikeium (A)
MRSA
  Organism, effect: MRSA (R)

## PF-546: peptide having multiple activities (chain 1 PIIAPTIKTQIQ; chain 2 PIIAPTIKTQIQ; Peptide with targeting and/or antimicrobial activity)
microorganisms
  Activities: G B
S. epidermidis
  Organism, effect: S. epidermidis (D)
E. coli
  Organism, effect: E. coli (R)
C. jeikeium
  Organism, effect: C. jeikeium (D)
MRSA
  Organism, effect: MRSA (D)
S. pneumoniae
  Organism, effect: S. pneumoniae (D)
[1]; peptide binding conducted in aqueous buffers varied by peptide solubility
  Target(s): S. epidermidis; also recorded: E. coli; also recorded: C. albicans; also recorded: S. pneumoniae; also recorded: E. faecalis; also recorded: C. jeikeium
E. faecalis
  Organism, effect: E. faecalis (D)

## PF-176: peptide having multiple activities (RLTSNQFLTRITPFVFAQH; Peptide with targeting and/or antimicrobial activity)
microorganisms
  Activities: G B
M. luteus
  Organism, effect: M. luteus (C)
S. epidermidis
  Organism, effect: S. epidermidis (C)
C. jeikeium
  Organism, effect: C. jeikeium (D)
[1]; binding in aqueous buffers depending on peptide solubility
  Target(s): S. epidermidis and M. luteus and P. mirabilis and E. coli and C. albicans and MRSA and E. faecalis and C. jeikeium

## PF-001: peptide having multiple activities (chain 1 MNNWIIVAQLSVTVINEIIDIMKEKQKGGK; chain 2 MNNWIIVAQLSVTVINEIIDIMKEKQKGGK; Peptide with targeting and/or antimicrobial activity)
microorganisms
  Activities: G B
M. luteus
  Organism, effect: M. luteus (C)
S. epidermidis
  Organism, effect: S. epidermidis (C)
C. jeikeium
  Organism, effect: C. jeikeium (D)
MRSA
  Organism, effect: MRSA (R)

## PF-681: peptide having multiple activities (chain 1 TALTTVGVSGARLITYCVGVEDI; chain 2 TALTTVGVSGARLITYCVGVEDI; Peptide with targeting and/or antimicrobial activity)
microorganisms
  Activities: G B
S. epidermidis
  Organism, effect (morphology, biofilm and growth disruption): S. epidermidis (M)
C. jeikeium
  Organism, effect (morphology, biofilm and growth disruption): C. jeikeium (R)
MRSA
  Organism, effect (morphology, biofilm and growth disruption): MRSA (M)
S. pneumoniae
  Organism, effect (morphology, biofilm and growth disruption): S. pneumoniae (M)
[1]
  Target(s) (microorganisms bound by the targeting peptide): M. smegmatis
E. faecalis
  Organism, effect (morphology, biofilm and growth disruption): E. faecalis (R)
